Values joined by “and” are separate entries in the source; they are usually repeats but may differ in a detail not shown here. Identical values can stand only once. Where a SMILES comes first, the peptide text is derived from it. Bridges are numbered along the chain shown (N, C = ends). [ ]: non-standard residue; d: D form. The star is where a group is joined. ξ: configuration not given here. Decanoyl(3ξ-OH) = CCCCCCCC(O)CC(=O)*; Dab = NCC[CH](N)C(=O)O; Dhb = C/C=C(\N)C(=O)O
Assays:
Format in all cases: cell-based
Enterococcus faecalis = assay: Inhibition rate (IR), propidium iodide uptake
Description: (§1) The antimicrobial action for each compound was initially determined by the rate of uptake of propidium iodide (Fluoropure grade, Molecular Probes, Inc., Eugene, Oreg.) as previously described (Haughland, R. P., 2002, Handbook of fluorescent probes and research chemicals, 9th ed. Molecular Probes, Inc., Eugene, Oreg.). Briefly, all cultures were grown overnight in their respective optimal growth medium and temperature from freezer vials (Table 1). Each culture was sub-cultured twice, harvested in mid-log phase, washed with saline, and adjusted to an appropriate concentration by measuring the optical density at 600 nm. PI, with an excitation wavelength of 535 and an emission wavelength of 617, was added to the culture suspension at a final concentration of 10 μM. Each organism was treated with 50 μg/mL SP 25A and 60 μg/mL of the RL mixture in a final volume of 2.2 mL. The increase in fluorescence was measured with a Shimadzu RF 1501 spectrophotofluorometer at 15 s intervals for a maximum period of 120 min. Saline was added in place of SP 25A or RLs as a negative control. All inhibition experiments were done in replicate.
(§2) The rate of antimicrobial action was expressed as the inhibition rate (“IR”). Curve fitting was done using OriginPro version 7.0 (Natick, Mass.). IR=((Log RFU/(Time))−C)/Time (when d Log RFU/dT>0). Where RFU=relative fluorescent units; and C=Y intercept.

Lactobacillus plantarum = assay: Inhibition rate (IR), propidium iodide uptake
Description: as §1, §2

Salmonella typhimurium = assay: Inhibition rate (IR), propidium iodide uptake
Description: as §1, §2

Erwinia herbicola = assay: Inhibition rate (IR), propidium iodide uptake
Description: as §1, §2

Citrobacter fruendii = assay: Inhibition rate (IR), propidium iodide uptake
Description: as §1, §2

Listeria monocytogenes = assay: Inhibition rate (IR), propidium iodide uptake
Description: as §1, §2

[1] = tested on: Streptococcus agalacticae; assay: Inhibition rate (IR), propidium iodide uptake
Description: as §1, §2

Streptococcus suis = assay: Inhibition rate (IR), propidium iodide uptake
Description: as §1, §2

Bacillus subtilis = assay: Inhibition rate (IR), propidium iodide uptake
Description: as §1, §2

Clostridium sporogenes = assay: Inhibition rate (IR), propidium iodide uptake
Description: as §1, §2

[2] = tested on: Staphylococcus aureus subsp. aureus; assay: Inhibition rate (IR), propidium iodide uptake
Description: as §1, §2

Eschereschia coli K12 = assay: Inhibition rate (IR), propidium iodide uptake
Description: as §1, §2

Salmonella enteridis = assay: Inhibition rate (IR), propidium iodide uptake
Description: as §1, §2

[3] = tested on: Listeria monocytogenes EGDe; assay: Membrane permeabilization by PI uptake during treatment
Description: Membrane permeabilization was determined through following the change in fluorescence of a dye, propidium iodide (“PI”). PI is unable to pass through the cell membrane unless the membrane has been physically compromised. Once inside the cell, the intercalation of the PI with the DNA of the cell causes the fluorescent properties of the dye to change. This change in fluorescence can be measured. Therefore, an uptake of PI indicates an increase in membrane permeabilization.
FIGS. 6A includes a graph that illustrates the amount of membrane permeabilization in response to SP 25A and RLs. Membrane permeabilization was determined by the increase in fluorescence (RFU) with PI uptake during treatment of L. monocytogenes with SP 25A and RLs over a period of 120 min.
Listeria monocytogenes EGDe was thawed and subcultured twice at 37° C. in brain heart infusion broth (BHI) (DIFCO, Franklin Lanes, N.J.). […]
Total RNA was extracted from a 1.8 mL culture immediately before treating the cells with SP 25A and RLs (T0), after 30 min (T30), and at 120 min (T120) of exposure at 37° C. Simultaneously, the cell density was measured at OD600. Membrane permeabilization was determined by measuring the PI uptake. […] Each well contained five probes for each open reading frame in the entire genome.

C/C=C(\NC(=O)C(C)NC(=O)C(C)NC(=O)C(CC(C)C)NC(=O)C(NC(=O)C(C)NC(=O)C(C)NC(=O)C(NC(=O)C1CCCN1C(=O)/C(=C/C)NC(=O)CC(O)CCCCCCC)C(C)C)C(C)C)C(=O)NC(C(=O)N/C(=C\C)C(=O)NC(C)C(=O)NC(C(=O)NC(C)C(=O)NC(C)C(=O)N/C(=C\C)C(=O)NC1C(=O)NC(CO)C(=O)NC(C)C(=O)NC(C(C)C)C(=O)NC(C)C(=O)NC(CCN)C(=O)NC(CCN)C(=O)NC(Cc2ccc(O)cc2)C(=O)OC1C)C(C)C)C(C)C (stereo not shown) [SP 25A, syringopeptin 25A] ({Decanoyl(3ξ-OH)}-[Dhb]PVAAVLAA[Dhb]V[Dhb]AVAA[Dhb]TSAVA[Dab][Dab]Y; ester 18-C; configuration not given here)
IR SP 25A (50 μg/mL) (Enterococcus faecalis): 0.001 | IR SP 25A (50 μg/mL) (Lactobacillus plantarum): 0.003 | IR SP 25A (50 μg/mL) (Salmonella typhimurium): 0.000 | IR SP 25A (50 μg/mL) (Erwinia herbicola): 0.000 | IR SP 25A (50 μg/mL) (Citrobacter fruendii): 0.000 | inhibition rate relative to the inhibition rate for RLs (Listeria monocytogenes; L. monocytogenes, each compound tested by itself): approximately one-sixth | IR SP 25A (50 μg/mL) (Listeria monocytogenes; Listeria monocytogenes, 50 μg/mL): 0.005 | IR SP 25A (50 μg/mL) [1]: 0.004 | IR SP 25A (50 μg/mL) (Streptococcus suis): 0.006 | IR SP 25A (50 μg/mL) (Bacillus subtilis): 0.006 | IR SP 25A (50 μg/mL) (Clostridium sporogenes): 0.008 | IR SP 25A (50 μg/mL) [2]: 0.003 | IR SP 25A (50 μg/mL) (Eschereschia coli K12): 0.000 | IR SP 25A (50 μg/mL) (Salmonella enteridis): 0.000 | increase in membrane permeabilization (PI uptake) ([3]; L. monocytogenes EGDe, 3 μg/mL SP 25A, after 30 min): ~2% and 2.6% | PI uptake (membrane permeabilization) ([3]; L. monocytogenes, sub-MIC doses, over 120 min): did not

— US20080261891A1, “COMPOSITIONS AND METHODS FOR USING SYRINGOPEPTIN 25A AND RHAMNOLIPIDS” (Utah State University, priority 2007, published 2008)
